Assay results from patent US9695155B2, “Herbicidal substituted pyrimidinyloxy benzene compounds” (E. I. DU PONT DE NEMOURS AND COMPANY, priority 2013, dated 2017).

Legend:
Heteranthera limosa = assay: Test B flooded paddy test; format: in vivo; conditions: Flood, 250 g ai/ha; 0 to 100 scale where 0 is no effect and 100 is complete control
Method in brief: (§1)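 Flooded to 3 cm at the 2-leaf stage, pots received compound through the paddy water and were kept at that depth under greenhouse conditions. After 13–15 days, effect was rated by eye relative to controls, 0 = none and 100 = complete control.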

giant foxtail [1] = assay: Test A postemergence; format: in vivo, Setaria faberii; conditions: for Foxtail, Giant plant response rating: 125 g ai/ha
Method in brief: (§2)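 Injury scores run from 0, no effect, to 100, complete control, judged by eye against untreated plants roughly 10 days after treatment. Chemicals carried a surfactant in a non-phytotoxic solvent and went onto loam–sand soil preemergence or onto one- to two-leaf seedlings postemergence.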

giant foxtail [2] = assay: Test A preemergence; format: in vivo, Setaria faberii; conditions: 0 to 100 scale where 0 is no effect and 100 is complete control
Method in brief: as §2

rice = assay: Test B flooded paddy test; format: in vivo, Oryza sativa; conditions: Flood, 250 g ai/ha; 0 to 100 scale where 0 is no effect and 100 is complete control
Method in brief: as §1

barnyardgrass [3] = assay: Test B flooded paddy test; format: in vivo, Echinochloa crus-galli; conditions: Flood, 250 g ai/ha; 0 to 100 scale where 0 is no effect and 100 is complete control
Method in brief: as §1

galium = assay: Test A postemergence; format: in vivo, Galium aparine; conditions: for Galium plant response rating: 125 g ai/ha
Method in brief: as §2

sedge, umbrella = assay: Test B flooded paddy test; format: in vivo, Cyperus difformis; conditions: Flood, 250 g ai/ha; 0 to 100 scale where 0 is no effect and 100 is complete control
Method in brief: as §1

kochia [4] = assay: Test A postemergence; format: in vivo, Kochia scoparia; conditions: for Kochia plant response rating: 125 g ai/ha
Method in brief: as §2

barnyardgrass [5] = assay: Test A postemergence; format: in vivo, Echinochloa crus-galli; conditions: for Barnyardgrass plant response rating: 125 g ai/ha
Method in brief: as §2

blackgrass = assay: Test A postemergence; format: in vivo, Alopecurus myosuroides; conditions: for Blackgrass plant response rating: 125 g ai/ha
Method in brief: as §2

kochia [6] = assay: Test A preemergence; format: in vivo, Kochia scoparia; conditions: 0 to 100 scale where 0 is no effect and 100 is complete control
Method in brief: as §2

barnyardgrass [7] = assay: Test A preemergence; format: in vivo, Echinochloa crus-galli; conditions: 0 to 100 scale where 0 is no effect and 100 is complete control
Method in brief: as §2

wheat = assay: Test A postemergence; format: in vivo, Triticum aestivum; conditions: for Wheat plant response rating: 125 g ai/ha
Method in brief: as §2

ragweed [8] = assay: Test A postemergence; format: in vivo, Ambrosia elatior; conditions: for Ragweed plant response rating: 125 g ai/ha
Method in brief: as §2

pigweed [9] = assay: Test A postemergence; format: in vivo, Amaranthus retroflexus; conditions: for Pigweed plant response rating: 125 g ai/ha
Method in brief: as §2

Italian ryegrass [10] = assay: Test A preemergence; format: in vivo, Lolium multiflorum; conditions: 0 to 100 scale where 0 is no effect and 100 is complete control
Method in brief: as §2

ragweed [11] = assay: Test A preemergence; format: in vivo, Ambrosia elatior; conditions: 0 to 100 scale where 0 is no effect and 100 is complete control
Method in brief: as §2

pigweed [12] = assay: Test A preemergence; format: in vivo, Amaranthus retroflexus; conditions: 0 to 100 scale where 0 is no effect and 100 is complete control
Method in brief: as §2

Italian ryegrass [13] = assay: Test A postemergence; format: in vivo, Lolium multiflorum; conditions: for Ryegrass, Italian plant response rating: 125 g ai/ha
Method in brief: as §2

corn = assay: Test A postemergence; format: in vivo, Zea mays; conditions: for Corn plant response rating: 125 g ai/ha
Method in brief: as §2

[14] = 0 to 100 scale where 0 is no effect and 100 is complete control
[15] = 500 g ai/ha, 0 to 100 scale where 0 is no effect and 100 is complete control
[16] = 31 g ai/ha, 0 to 100 scale, 0 no effect, 100 complete control
[17] = 31 g ai/ha, visual, approximately 10 days

SMILES | Plant response rating, Ducksalad (Heteranthera limosa) | Foxtail, Giant plant response rating (giant foxtail [1]; [14]) | Plant response rating, Foxtail, Giant (giant foxtail [2]; 125 g ai/ha) | Plant response rating, Rice (rice) | Plant response rating, Barnyardgrass (barnyardgrass [3]) | Galium plant response rating (galium; [14]) | Plant response rating, Sedge, Umbrella (sedge, umbrella) | Kochia plant response rating (kochia [4]; [14]) | Barnyardgrass plant response rating (barnyardgrass [5]; [14]) | Blackgrass plant response rating (blackgrass; [14]) | Plant response rating, Kochia (kochia [6]; 125 g ai/ha) | Plant response rating, Barnyardgrass (barnyardgrass [7]; 125 g ai/ha) | Wheat plant response rating (wheat; [14]) | Ragweed plant response rating (ragweed [8]; [14]) | Pigweed plant response rating (pigweed [9]; [14]) | Plant response rating, Ryegrass, Italian (Italian ryegrass [10]; 125 g ai/ha) | Plant response rating, Ragweed (ragweed [11]; 125 g ai/ha) | Plant response rating, Pigweed (pigweed [12]; 125 g ai/ha) | Ryegrass, Italian plant response rating (Italian ryegrass [13]; [14]) | Corn plant response rating (corn; [14]) | other results
CS(=O)(=O)c1cccc(Oc2ncc(Cl)cn2)c1-n1cc(Br)cn1 [Compound 142] | 0 | 0 | 0 | 0 | 0 | 0 | 0 | 0 | 0 | 0 | 0 | 0 | 0 | 0 | 0 | 0 | 0 | 0 | 0 | 0 | Plant response rating, Foxtail, Giant (giant foxtail [1]; [15]): 0; Foxtail, Giant plant response rating (giant foxtail [2]; 500 g ai/ha): 0; Plant response rating, Galium (galium; [15]): 0; Plant response rating, Kochia (kochia [4]; [15]): 70; Plant response rating, Barnyardgrass (barnyardgrass [5]; [15]): 0; Plant response rating, Blackgrass (blackgrass; [15]): 0; Kochia plant response rating (kochia [6]; 500 g ai/ha): 50; Barnyardgrass plant response rating (barnyardgrass [7]; 500 g ai/ha): 0; Plant response rating, Wheat (wheat; [15]): 0; Plant response rating, Ragweed (ragweed [8]; [15]): 0; Plant response rating, Pigweed (pigweed [9]; [15]): 0; Ryegrass, Italian plant response rating (Italian ryegrass [10]; 500 g ai/ha): 0; Ragweed plant response rating (ragweed [11]; 500 g ai/ha): 20; Pigweed plant response rating (pigweed [12]; 500 g ai/ha): 0; Plant response rating, Ryegrass, Italian (Italian ryegrass [13]; [15]): 0; Plant response rating, Corn (corn; [15]): 0
CC(C)Oc1cnn(-c2c(Br)cccc2Oc2ncc(Cl)cn2)c1 [Compound 148] | 40 | 40 | 70 | 0 | 0 | 60 | 30 | 30 | 30 | 10 | 0 | 50 | 0 | 20 | 50 | 0 | 0 | 10 | 0 | 20 | Plant response rating, Foxtail, Giant (giant foxtail [1]; [16]): 10; Plant response rating, Foxtail, Giant (giant foxtail [2]; [17]): 10; Plant response rating, Galium (galium; [16]): 20; Plant response rating, Kochia (kochia [4]; [16]): 0; Plant response rating, Barnyardgrass (barnyardgrass [5]; [16]): 0; Plant response rating, Blackgrass (blackgrass; [16]): 0; Plant response rating, Kochia (kochia [6]; [17]): 0; Plant response rating, Barnyardgrass (barnyardgrass [7]; [17]): 0; Plant response rating, Wheat (wheat; [16]): 0; Plant response rating, Ragweed (ragweed [8]; [16]): 10; Plant response rating, Pigweed (pigweed [9]; [16]): 50; Plant response rating, Ryegrass, Italian (Italian ryegrass [10]; [17]): 0; Plant response rating, Ragweed (ragweed [11]; [17]): 0; Plant response rating, Pigweed (pigweed [12]; [17]): 0; Plant response rating, Ryegrass, Italian (Italian ryegrass [13]; [16]): 0; Plant response rating, Corn (corn; [16]): 0
CC(C)Oc1cnn(-c2c(Br)cccc2Oc2ncc(F)cn2)c1 [Compound 156] | 0 | 10 | 70 | 0 | 0 | 30 | 0 | 40 | 10 | 20 | 10 | 30 | 0 | 40 | 20 | 0 | 0 | 0 | 0 | 10 | Plant response rating, Foxtail, Giant (giant foxtail [1]; [16]): 0; Plant response rating, Foxtail, Giant (giant foxtail [2]; [17]): 0; Plant response rating, Galium (galium; [16]): 20; Plant response rating, Kochia (kochia [4]; [16]): 0; Plant response rating, Barnyardgrass (barnyardgrass [5]; [16]): 0; Plant response rating, Blackgrass (blackgrass; [16]): 0; Plant response rating, Kochia (kochia [6]; [17]): 0; Plant response rating, Barnyardgrass (barnyardgrass [7]; [17]): 0; Plant response rating, Wheat (wheat; [16]): 0; Plant response rating, Ragweed (ragweed [8]; [16]): 0; Plant response rating, Pigweed (pigweed [9]; [16]): 10; Plant response rating, Ryegrass, Italian (Italian ryegrass [10]; [17]): 0; Plant response rating, Ragweed (ragweed [11]; [17]): 0; Plant response rating, Pigweed (pigweed [12]; [17]): 0; Plant response rating, Ryegrass, Italian (Italian ryegrass [13]; [16]): 0; Plant response rating, Corn (corn; [16]): 0
CC(C)Oc1cnn(-c2c(C#N)cccc2Oc2ncc(F)cn2)c1 [Compound 158] | 50 | 70 | 90 | 40 | 0 | 100 | 0 | 80 | 80 | 60 | 70 | 70 | 0 | 80 | 50 | 50 | 80 | 70 | 50 | 30 | Plant response rating, Foxtail, Giant (giant foxtail [1]; [16]): 20; Plant response rating, Foxtail, Giant (giant foxtail [2]; [17]): 60; Plant response rating, Galium (galium; [16]): 60; Plant response rating, Kochia (kochia [4]; [16]): 60; Plant response rating, Barnyardgrass (barnyardgrass [5]; [16]): 20; Plant response rating, Blackgrass (blackgrass; [16]): 50; Plant response rating, Kochia (kochia [6]; [17]): 50; Plant response rating, Barnyardgrass (barnyardgrass [7]; [17]): 10; Plant response rating, Wheat (wheat; [16]): 0; Plant response rating, Ragweed (ragweed [8]; [16]): 60; Plant response rating, Pigweed (pigweed [9]; [16]): 40; Plant response rating, Ryegrass, Italian (Italian ryegrass [10]; [17]): 30; Plant response rating, Ragweed (ragweed [11]; [17]): 40; Plant response rating, Pigweed (pigweed [12]; [17]): 50; Plant response rating, Ryegrass, Italian (Italian ryegrass [13]; [16]): 20; Plant response rating, Corn (corn; [16]): 0
